From PubChem BioAssay AID330 (DTP/NCI, 2004)
Values joined by “and” are separate entries in the source; they are usually repeats but may differ in a detail not shown here. Equal values may be shown once. Toxic doses and inconclusive results are not listed.

Test system: P388 leukemia ip, CD2F1 mice, survival T/C
Assay: NCI In Vivo Anticancer Drug Screen. Data for tumor model P388 Leukemia (intraperitoneal) in CD2F1 (CDF1) mice
Conditions: endpoint: median survival time, higher = longer survival
Procedure, shortened: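 Mice carrying the transplanted tumor received test compound or vehicle. Survival was recorded in each group, and the value is the treated-group measurement divided by that of the vehicle-treated control group.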

[1] = dose: 50.0 mg/kg/injection, schedule: Q01DX005 (ip), vehicle: saline with Tween-80
[2] = dose: 100.0 mg/kg/injection, schedule: Q01DX005 (ip), vehicle: saline with Tween-80
[3] = dose: 200.0 mg/kg/injection, schedule: Q01DX005 (ip), vehicle: saline with Tween-80
[4] = dose: 100.0 mg/kg/injection, schedule: Q04DX003 (ip), vehicle: Klucel (hydroxypropylcellulose) (HPC)
[5] = dose: 200.0 mg/kg/injection, schedule: Q04DX003 (ip), vehicle: Klucel (hydroxypropylcellulose) (HPC)
[6] = dose: 60.0 mg/kg/injection, schedule: Q01DX005 (ip), vehicle: saline
[7] = dose: 120.0 mg/kg/injection, schedule: Q01DX005 (ip), vehicle: saline
[8] = dose: 60.0 mg/kg/injection, schedule: Q01DX005 (ip), vehicle: saline with Tween-80
[9] = dose: 120.0 mg/kg/injection, schedule: Q01DX005 (ip), vehicle: saline with Tween-80
[10] = dose: 240.0 mg/kg/injection, schedule: Q01DX005 (ip), vehicle: saline with Tween-80
[11] = dose: 100.0 mg/kg/injection, schedule: Q01DX001 (ip), vehicle: saline with Tween-80
[12] = dose: 200.0 mg/kg/injection, schedule: Q01DX001 (ip), vehicle: saline with Tween-80

C/C(=C\CCCC(/C=C/C=C/CCCCOCc1ccccc1)O[Si](C)(C)C(C)(C)C)CO (stereo not drawn) was tested, and the T/C [1] was 102 % of control, the T/C [2] was 101 % of control and the T/C [3] was 99 % of control.

For C=C1C(=O)OC2C(O)CCCC12 (stereo not drawn), the T/C (dose: 50.0 mg/kg/injection, schedule: Q04DX003 (ip), vehicle: Klucel (hydroxypropylcellulose) (HPC)) was 105 % of control and 110 % of control, the T/C [4] was 98 % of control and 103 % of control and the T/C [5] was 110 % of control.

For CS(=O)(=O)CC1=NC(=N)N=C1CS(C)(=O)=O, the T/C [6] was 100 % of control, the T/C [7] was 110 % of control and the T/C (dose: 240.0 mg/kg/injection, schedule: Q01DX005 (ip), vehicle: saline) was 96 % of control.

In the case of COc1cc(-c2c(C)oc(C)c2C(C)=O)ccc1OCc1ccccc1, the T/C (dose: 60.0 mg/kg/injection, schedule: Q01DX005 (ip), vehicle: Klucel (hydroxypropylcellulose) (HPC)) was 92 % of control, the T/C (dose: 120.0 mg/kg/injection, schedule: Q01DX005 (ip), vehicle: Klucel (hydroxypropylcellulose) (HPC)) was 97 % of control and the T/C (dose: 240.0 mg/kg/injection, schedule: Q01DX005 (ip), vehicle: Klucel (hydroxypropylcellulose) (HPC)) was 91 % of control.

For CCc1cccc(CC)c1NC(=O)c1ccc(C)cc1, the T/C [8] was 91 % of control and the T/C [9] was 86 % of control.

For Cc1ccccc1-n1cccc1C(=O)O, the T/C [8] was 95 % of control, the T/C [9] was 93 % of control and the T/C [10] was 99 % of control.

C[C@H]1C[C@](C)(CO)Oc2oc3ccccc3c(=O)c21 was tested, and the T/C [8] was 108 % of control, the T/C [9] was 109 % of control and the T/C [10] was 111 % of control.

With CC(C)(C)OC(=O)NCCCCC(NC(=O)OCC1c2ccccc2-c2ccccc21)C(=O)O (stereo not drawn) the T/C (dose: 50.0 mg/kg/injection, schedule: Q01DX005 (ip), vehicle: Klucel (hydroxypropylcellulose) (HPC)) was 109 % of control and the T/C (dose: 100.0 mg/kg/injection, schedule: Q01DX005 (ip), vehicle: Klucel (hydroxypropylcellulose) (HPC)) was 93 % of control.

C=C(C)C(=O)OCCN(CC)CC was tested, and the T/C [1] was 100 % of control, the T/C [2] was 99 % of control and the T/C [3] was 100 % of control.

In the case of CCCCCC(=O)C(=O)c1ccc(O)cc1O, the T/C (dose: 50.0 mg/kg/injection, schedule: Q01DX009 (ip), vehicle: Klucel (hydroxypropylcellulose) (HPC)) was 89 % of control, the T/C (dose: 100.0 mg/kg/injection, schedule: Q01DX009 (ip), vehicle: Klucel (hydroxypropylcellulose) (HPC)) was 109 % of control and the T/C (dose: 200.0 mg/kg/injection, schedule: Q01DX009 (ip), vehicle: Klucel (hydroxypropylcellulose) (HPC)) was 100 % of control.

CC(OC(=O)Nc1cccc2ccccc12)C(N)=O (stereo not drawn) was tested, and the T/C [4] was 91 % of control, the T/C [5] was 95 % of control and the T/C (dose: 400.0 mg/kg/injection, schedule: Q04DX003 (ip), vehicle: Klucel (hydroxypropylcellulose) (HPC)) was 96 % of control.

With c1ccc(C2=NN(c3ccccc3)C3(c4ccccc4)CCCN23)cc1 (stereo not drawn) the T/C [11] was 108 % of control, the T/C [12] was 97 % of control and the T/C (dose: 400.0 mg/kg/injection, schedule: Q01DX001 (ip), vehicle: saline with Tween-80) was 95 % of control.

For NC(=O)C1(Br)C=[N+](Cc2ccccc2)CCC1 (stereo not drawn), the T/C [6] was 103 % of control and the T/C [7] was 95 % of control.

CC1N/C(=C/c2ccccc2)C(=O)O1 (stereo not drawn) was tested, and the T/C (dose: 25.0 mg/kg/injection, schedule: Q01DX009 (ip), vehicle: saline with Tween-80) was 106 % of control, the T/C (dose: 50.0 mg/kg/injection, schedule: Q01DX009 (ip), vehicle: saline with Tween-80) was 110 % of control and the T/C (dose: 100.0 mg/kg/injection, schedule: Q01DX009 (ip), vehicle: saline with Tween-80) was 105 % of control and 123 % of control. For the same compound, the T/C (dose: 200.0 mg/kg/injection, schedule: Q01DX009 (ip), vehicle: saline with Tween-80) was 117 % of control and 96 % of control.

CCCN(CCC)CC(=O)Nc1c(Cl)cccc1Cl was tested, and the T/C (dose: 25.0 mg/kg/injection, schedule: Q01DX009 (ip), vehicle: saline) was 100 % of control, the T/C (dose: 50.0 mg/kg/injection, schedule: Q01DX009 (ip), vehicle: saline) was 110 % of control and the T/C (dose: 100.0 mg/kg/injection, schedule: Q01DX009 (ip), vehicle: saline) was 105 % of control.

With O=C(O)c1nc2ccccc2c2ncccc12 the T/C (dose: 25.0 mg/kg/injection, schedule: Q04DX002 (ip), vehicle: saline with Tween-80) was 101 % of control, the T/C (dose: 50.0 mg/kg/injection, schedule: Q04DX002 (ip), vehicle: saline with Tween-80) was 92 % of control and the T/C (dose: 100.0 mg/kg/injection, schedule: Q04DX002 (ip), vehicle: saline with Tween-80) was 94 % of control.

For COc1cc(OC)c2c(=O)c3ccc([N+](=O)[O-])cc3n(C)c2c1, the T/C [11] was 100 % of control and the T/C [12] was 100 % of control.
